Test [1] concerns Armillaria mellea. In words: Fungicidal activity against Armillaria mellea infected kiwifruit assessed as mycelial growth inhibition at 5 mg/l formulated as Caddy 10WP at 25 degC measured every week for 1 month (reference value: 0%). The test is classed as functional. The following applies: read-out: GI.
The subject of test [2] is Armillaria mellea. In words: Fungicidal activity against Armillaria mellea infected apple assessed as mycelial growth inhibition at Caddy 10WP formulation at 25 degC measured every week for 1 month. Type of test: functional, organism-based.
Test [3] relates to Armillaria mellea. As to the kind of experiment: Fungicidal activity against Armillaria mellea infected walnut assessed as mycelial growth inhibition at 30 mg/l formulated as Caddy 10WP at 25 degC measured every week for 1 month (reference value: 0%). Type of test: functional. The following applies: read-out: GI.
In test [4] the test system is Armillaria mellea. In words: Fungicidal activity against Armillaria mellea infected kiwifruit assessed as mycelial growth inhibition at 20 mg/l formulated as Caddy 10WP at 25 degC measured every week for 1 month (reference value: 0%). The test is classed as functional. The following applies: read-out: GI.
The test system of test [5] is Armillaria mellea. In words: Fungicidal activity against Armillaria mellea infected apple assessed as mycelial growth inhibition at 20 mg/l formulated as Caddy 10WP at 25 degC measured every week for 1 month (reference value: 0%). The test is classed as functional. The following applies: read-out: GI.
For test [6], the system named is Armillaria mellea. As to the kind of experiment: Fungicidal activity against Armillaria mellea infected walnut assessed as mycelial growth inhibition at 15 mg/l formulated as Caddy 10WP at 25 degC measured every week for 1 month (reference value: 0%). Type of test: functional. As to conditions: read-out: GI.
The subject of test [7] is Armillaria mellea. In words: Fungicidal activity against Armillaria mellea infected kiwifruit assessed as mycelial growth inhibition at 25 mg/l formulated as Caddy 10WP at 25 degC measured every week for 1 month (reference value: 0%). Type of test: functional. The following applies: read-out: GI.
The test system of test [8] is Armillaria mellea. As to the kind of experiment: Fungicidal activity against Armillaria mellea infected walnut assessed as mycelial growth inhibition at 20 mg/l formulated as Caddy 10WP at 25 degC measured every week for 1 month (reference value: 0%). As to conditions: read-out: GI. Type of test: functional.
The test system of test [9] is Armillaria mellea. As to the kind of experiment: Fungicidal activity against Armillaria mellea infected apple assessed as mycelial growth inhibition at 15 mg/l formulated as Caddy 10WP at 25 degC measured every week for 1 month (reference value: 0%). The test is classed as functional. The following applies: read-out: GI.
The test system of test [10] is Armillaria mellea. In words: Fungicidal activity against Armillaria mellea infected kiwifruit assessed as mycelial growth inhibition at Caddy 10WP formulation at 25 degC measured every week for 1 month. The test is classed as functional, organism-based.
The test system of test [11] is Armillaria mellea. As to the kind of experiment: Fungicidal activity against Armillaria mellea infected apple assessed as mycelial growth inhibition at 5 mg/l formulated as Caddy 10WP at 25 degC measured every week for 1 month (reference value: 0%). Type of test: functional. As to conditions: read-out: GI.
Test [12] deals with Armillaria mellea. In words: Fungicidal activity against Armillaria mellea infected walnut assessed as mycelial growth inhibition at 10 mg/l formulated as Caddy 10WP at 25 degC measured every week for 1 month (reference value: 0%). As to conditions: read-out: GI. The test is classed as functional.
The subject of test [13] is Armillaria mellea. In words: Fungicidal activity against Armillaria mellea infected kiwifruit assessed as mycelial growth inhibition at 15 mg/l formulated as Caddy 10WP at 25 degC measured every week for 1 month (reference value: 0%). Type of test: functional. The following applies: read-out: GI.
Test [14] relates to Armillaria mellea. As to the kind of experiment: Fungicidal activity against Armillaria mellea infected kiwifruit assessed as mycelial growth inhibition at 10 mg/l formulated as Caddy 10WP at 25 degC measured every week for 1 month (reference value: 0%). The test is classed as functional. The following applies: read-out: GI.
Test [15] has as its system Armillaria mellea. In words: Fungicidal activity against Armillaria mellea infected walnut assessed as mycelial growth inhibition at 5 mg/l formulated as Caddy 10WP at 25 degC measured every week for 1 month (reference value: 0%). The test is classed as functional. As to conditions: read-out: GI.
Test [16] has as its system Armillaria mellea. In words: Fungicidal activity against Armillaria mellea infected apple assessed as mycelial growth inhibition at 10 mg/l formulated as Caddy 10WP at 25 degC measured every week for 1 month (reference value: 0%). Type of test: functional. The following applies: read-out: GI.
Test [17] concerns Armillaria mellea. As to the kind of experiment: Fungicidal activity against Armillaria mellea infected walnut assessed as mycelial growth inhibition at Caddy 10WP formulation at 25 degC measured every week for 1 month. The test is classed as functional, organism-based.
Test [18] deals with Armillaria mellea. In words: Fungicidal activity against Armillaria mellea infected apple assessed as mycelial growth inhibition at 30 mg/l formulated as Caddy 10WP at 25 degC measured every week for 1 month (reference value: 0%). The test is classed as functional. As to conditions: read-out: GI.
Test [19] has as its system Armillaria mellea. As to the kind of experiment: Fungicidal activity against Armillaria mellea infected apple assessed as mycelial growth inhibition at 25 mg/l formulated as Caddy 10WP at 25 degC measured every week for 1 month (reference value: 0%). Type of test: functional. The following applies: read-out: GI.
Test [20] deals with Armillaria mellea. As to the kind of experiment: Fungicidal activity against Armillaria mellea infected kiwifruit assessed as mycelial growth inhibition at 30 mg/l formulated as Caddy 10WP at 25 degC measured every week for 1 month (reference value: 0%). As to conditions: read-out: GI. Type of test: functional.
The subject of test [21] is Armillaria mellea. In words: Fungicidal activity against Armillaria mellea infected walnut assessed as mycelial growth inhibition at 25 mg/l formulated as Caddy 10WP at 25 degC measured every week for 1 month (reference value: 0%). Type of test: functional. As to conditions: read-out: GI.

Converted amounts (≈) assume the structure as drawn.

Consider `CC(C1CC1)C(O)(Cn1cncn1)c1ccc(Cl)cc1` (stereo unspecified) [CYPROCONAZOLE], for which the inhibition of growth at 5 µg/mL in [1] is 47%; in test [11], 56%; in test [15], 41%. The EC50 (usually the concentration giving half of the maximal effect) was determined as 5.19 µg/mL (≈ 17.8 µM) in test [2], 5.72 µg/mL (≈ 19.6 µM) in test [10] and 6.73 µg/mL (≈ 23.1 µM) in test [17]. For the same molecule, the inhibition of growth at 30 µg/mL in test [3], in [18] and in [20] was 100% throughout. For the same molecule, the inhibition of growth at 20 µg/mL in test [4], in [5] and in [8] was 100% in each case. Also, the inhibition of growth at 15 µg/mL in [6] was 95%; in test [9], 98%; in [13], 100%. For the same molecule, the inhibition of growth at 25 µg/mL in [7], in [19] and in test [21] was 100% each time. The inhibition of growth at 10 µg/mL in test [12] is 73%; in [14] it was 86%; in [16], 89%.
